According to patent US20250296960A1, “PEPTIDE COMPOSITIONS AND METHODS OF USE THEREOF” (priority 2022, published 2025):
Numbered stars: 1 amine (or outer) side, 2 acyl side, 3 side chain; on linkers, the order of the positions; unused ones are H or OH. Square brackets hold non-standard residues; d marks the D form. Side chains are listed from the residue outwards. Ends that are not written are not given here. Peptide text beside a SMILES is read from it. * marks the point of attachment. C18 = C18 fatty acid (C16-C22 fatty acids conjugated via γGlu/8-amino-3,6-dioxaoctanoic acid spacers); Biotin = O=C1N[C@H]2[C@H](CS[C@H]2CCCCC(=O)*)N1; C18 diacid = O=C(O)CCCCCCCCCCCCCCCCC(=O)*; γGlu = O=C(O)[C@H](CCC(=O)[*:2])N[*:1]; AEEA = NCCOCCOCC(=O)O; Aib = CC(C)(N)C(=O)O

Experiments:
[1] = In vivo efficacy in mAMLN (NASH) mice, 2 weeks; conditions: for blood glucose, in words / body weight, in words: 20 nmol/kg s.c. Q2D, 2 weeks; for hepatic triglyceride content, in words / liver weight, in words / mRNA levels of TGF-β1 (inflammation marker) and ACTA2 (fibrosis marker), in words: end of treatment
[2] = Body weight loss in normal C57BL/6 mice, subcutaneous dosing; assay type: in vivo; conditions: normal mice; 20 nmol/kg QD; Weight loss at 48 hr
[3] = Intestinal absorption / PK after intraduodenal administration of oral formulation in rats, serum LC-MS/MS; conditions: rat, in vivo, rats, single intraduodenal administration, 300 nmol/kg, oral formulation suspension, serum, mean ± SD
Description: This study was conducted to evaluate the intestinal absorption of peptides following enteral administration of oral pharmaceutical formulations. The pharmaceutical formulation was administered in a form of suspensions by intraduodenal (ID) injection in rats. SEQ ID_87, 89 and 90 was accurately weighed and dissolved in 10 mM PBS containing polysorbate 80 (pH 7.4, vehicle I). The mixture was vortexed for 5 min to get a clear solution. Then, 2.5 mL of vehicle was added to the mixture and vortexed for 30 min to get homogenous opaque suspension. The composition of Vehicle II was sodium chenodeoxycholate, and propyl gallate in polysorbate 80 in PBS. The animals were not fasted prior to dosing. 0.2˜ 0.4 mL of whole blood was taken from vein at each time point (0, 0.167, 0.5, 1, 2, 4, 8, 24, and 48 hrs after IV or ID administration). The collected whole blood was incubated at room temperature for 20 min and tubes were centrifugated at 13,000 rpm for 10 min at 4° C. The resulting serum 0.1˜ 0.2 mL was transferred into the tube and stored at −70° C. until analysis. The concentrations of peptides in serum were determined by LC-MS/MS analysis. PK parameters were analyzed by non-compartmental analysis using Phoenix WinNonlin 5.0.1. software (Pharsight Corporation, Mountain View, CA, USA).

Row | Compound | blood glucose, in words [1] | body weight, in words [1] | hepatic triglyceride content, in words [1] | liver weight, in words [1] | mRNA levels of TGF-β1 (inflammation marker) and ACTA2 (fibrosis marker), in words [1] | Weight loss (%) [2] [%] | AUC(0-inf) ([3]; read-out: AUCinf) [ng·h/mL] | Cmax ([3]; read-out: Cmax) [ng/mL] | MRT inf ([3]; read-out: MRTinf) [h] | Tmax ([3]; read-out: Tmax) [h] | half-life ([3]; read-out: t1/2 (converted)) [h]
1 | YAibQGT FTSDY SK*LLD YMMQRDFVQWLLEGGPSSGAPPPS (Y[Aib]QGTFTSDYSK([AEEA-AEEA-γGlu-C18])LLDYMMQRDFVQWLLEGGPSSGAPPPS-NH2) [5-3D, K* = lysine lipidated with 2OEG-γGlu-C18] | reduce blood glucose | reduce body weight | reduce hepatic triglyceride content | reduce liver weight | reduce both TGF-β1 and ACTA2 | 7.6 ± 1.3 |  |  |  |  | 
2 | YAibQGT FTSDY SK*YLD YMMQRDFVQWLIEGGPSSGAPPPS (Y[Aib]QGTFTSDYSK([AEEA-AEEA-γGlu-C18])YLDYMMQRDFVQWLIEGGPSSGAPPPS-NH2) [5-2D, K* = lysine lipidated with 2OEG-γGlu-C18] | reduce blood glucose | reduce body weight | reduce hepatic triglyceride content | reduce liver weight | reduce both TGF-β1 and ACTA2 | 16.6 ± 0.9 |  |  |  |  | 
3 | YAibQGT FTSDY SK*YLD YMMARDFVQWLIEGGPSSGAPPPS (Y[Aib]QGTFTSDYSK([AEEA-AEEA-γGlu-C18])YLDYMMARDFVQWLIEGGPSSGAPPPS-NH2) [5-1D, K* = lysine lipidated with 2OEG-γGlu-C18] | reduce blood glucose | reduce body weight | reduce hepatic triglyceride content | reduce liver weight | reduce both TGF-β1 and ACTA2 | 16.7 ± 1.3 |  |  |  |  | 
4 | CSCC[C@H](NC(=O)[C@H](Cc1ccc(O)cc1)NC(=O)[C@H](CC(=O)O)NC(=O)[C@H](CC(C)C)NC(=O)[C@H](CC(C)C)NC(=O)[C@H](CCCCNC(=O)COCCOCCNC(=O)COCCOCCNC(=O)CC[C@H](NC(=O)CCCCCCCCCCCCCCCCC(=O)O)C(=O)O)NC(=O)[C@H](CO)NC(=O)[C@H](Cc1ccc(O)cc1)NC(=O)[C@H](CC(=O)O)NC(=O)[C@H](CO)NC(=O)[C@@H](NC(=O)[C@H](Cc1ccccc1)NC(=O)[C@@H](NC(=O)CNC(=O)[C@H](CCC(N)=O)NC(=O)C(C)(C)NC(=O)[C@@H](N)Cc1ccc(O)cc1)[C@@H](C)O)[C@@H](C)O)C(=O)N[C@@H](CCSC)C(=O)N[C@@H](CCC(N)=O)C(=O)N[C@@H](CCCNC(=N)N)C(=O)N[C@@H](CC(=O)O)C(=O)N[C@@H](Cc1ccccc1)C(=O)N[C@H](C(=O)N[C@@H](CCCCNC(=O)CCCC[C@@H]1SC[C@@H]2NC(=O)N[C@@H]21)C(=O)N[C@@H](Cc1c[nH]c2ccccc12)C(=O)N[C@@H](CC(C)C)C(=O)N[C@@H](CC(C)C)C(=O)N[C@@H](CCC(=O)O)C(=O)NCC(=O)NCC(=O)N1CCC[C@H]1C(=O)N[C@@H](CO)C(=O)N[C@@H](CO)C(=O)NCC(=O)N[C@@H](C)C(=O)N1CCC[C@H]1C(=O)N1CCC[C@H]1C(=O)N1CCC[C@H]1C(=O)N[C@@H](CO)C(N)=O)C(C)C [SEQ ID_89] (H-Y[Aib]QGTFTSDYSK([AEEA-AEEA-γGlu-C18 diacid])LLDYMMQRDFVK(Biotin)WLLEGGPSSGAPPPS-NH2; N-terminus and C-terminus assumed) |  |  |  |  |  |  | 2790 | 332 ± 124 | 9.89 ± 3.91 | 0.43 ± 0.15 | 7.24 ± 2.05
5 | HAibQGT FTSDY SK*YLD YMMARDFVQWLIEGGPSSGAPPPS (H[Aib]QGTFTSDYSK([AEEA-AEEA-γGlu-C18])YLDYMMARDFVQWLIEGGPSSGAPPPS-NH2) [5D, K* = lysine lipidated with 2OEG-γGlu-C18] | reduce blood glucose | reduce body weight | reduce hepatic triglyceride content | reduce liver weight | reduce both TGF-β1 and ACTA2 | 19.4 ± 2.2 |  |  |  |  | 
